Source: paper PMC3791928, “Preparation and First Preclinical Evaluation of [^18F]FE@SNAP: A Potential PET Tracer for the Melanin-Concentrating Hormone Receptor-1 (MCHR1)” (Scientia Pharmaceutica, 2013)
Structures can show the parent of a compound that is named as a salt. Where two headings read alike, the source gives them in different places. Blank lines part the entries; values can stand above or below the molecule they belong to.

Experiments:
[1] = biological target: T1, hMCHR2 (Homo sapiens, UniProt Q969V1); test: preliminary competition binding against [^125I]MCH on hMCHR2
T1 construct: purchased PerkinElmer; host or cells: CHO-K1 cell membranes (recombinant expression)
T1 sequence (Q969V1 whole entry): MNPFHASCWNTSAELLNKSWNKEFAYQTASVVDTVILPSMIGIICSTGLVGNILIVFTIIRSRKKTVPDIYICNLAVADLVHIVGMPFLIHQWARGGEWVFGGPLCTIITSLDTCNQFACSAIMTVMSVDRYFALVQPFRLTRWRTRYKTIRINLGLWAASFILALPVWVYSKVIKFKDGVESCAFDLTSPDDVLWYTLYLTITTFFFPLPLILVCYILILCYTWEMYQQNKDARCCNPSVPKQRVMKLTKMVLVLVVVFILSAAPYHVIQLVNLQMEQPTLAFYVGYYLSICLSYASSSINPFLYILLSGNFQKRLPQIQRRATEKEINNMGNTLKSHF
From the text: [^18F]fluoride was produced via the ^18O(p,n)^18F reaction in a GE PET trace cyclotron (16.5-MeV protons; GE Medical Systems, Uppsala, Sweden). H2^18O (HYOX18; > 98%) was purchased from Rotem Europe (Leipzig, Germany). Typical beam currents were 48–52 μA and irradiation was stopped as soon as the desired activity level was reached (approx. 25–30 GBq). Anion-exchange cartridges (PS-HCO3) for [^18F]fluoride trapping were obtained from Macherey-Nagel (Dueren, Germany). The precursor compound (Tos@SNAP; 4, Fig. 1) and the reference standard (FE@SNAP) were synthesized in cooperation with the Department of Drug and Natural Product Synthesis of the University of Vienna (Austria). Solid phase extraction (SPE) cartridges SepPak® C18-plus and the Oasis HLB 6cc Vac (200 mg) were purchased from Waters (Waters® Associates, Milford, MA, USA). Sterile water Ecotainer® and 0.9% saline solution were purchased from B. Braun (Melsungen, Germany). 3% saline solution was obtained from a local pharmacy (Landesapotheke Salzburg, Austria). A 125 mM phosphate buffer was prepared by dissolving 0.224g sodium dihydrogen phosphate-monohydrate and 1.935g disodium hydrogen phosphate-dihydrate (both from Merck, Darmstadt, Germany) in 100 mL of sterile water. Phosphate-buffered saline (PBS) concentrate (10:1) was obtained from Morphisto (Frankfurt, Germany). […]

[2] = plasma stability in rat plasma; format: in vitro ADME; conditions: for degradation in rat plasma (in words): after 120 min
Experimental: (§1) The stability of [^18F]FE@SNAP in human and rat plasma was determined according to Nics et al.. 1800 μL of lithium-heparinized plasma (rat and human, respectively) were pre-incubated under physiological conditions (PBS, pH 7.4, 37°C) in a shaking incubator for 5 minutes. 36 μL [^18F]FE@SNAP (corresponding to 2% ethanol v/v in the total volume) were added and the plasma vial was vortexed for at least 10 seconds. After defined points in time (0 and 120 min), 500 μL of the incubation-mixture were added to a preconditioned (with 5 mL methanol followed by 5 mL water) SPE-cartridge (Oasis). The cartridge was then eluted into a collection tube, washed with 5 mL of 5% methanol in water (v/v) into a second tube, and eluted with 3 mL of THF into a third tube. 20 μL of the eluate-solution of tube two and three were injected into the analytical HPLC (mobile phase: (water/acetic acid 97.5/2.5 v/v; 2.5 g/L ammonium acetate; pH 3.5)/acetonitrile 70/30 v/v; flow: 2mL/min).

[3] = plasma free fraction (centrifugal filter units); format: in vitro ADME; conditions: human plasma, n=3
Experimental: The method used was modified from Parsey et al.. 1 mL of heparinized plasma (rat and human, respectively) were mixed with 10–50 μL [^18F]FE@SNAP. 200 μL aliquots were pipetted into the centrifugal filter units and the total radioactivity was measured in a Gamma Counter. After the centrifugation step (2.000 × g, 50 min), 50 μL of the obtained filtrate was back-measured for radioactivity. For the determination of the plasma free fraction (f1), the ratio of filtrate to total activity concentration was calculated.

[4] = system: porcine carboxylesterase; test: stability against carboxylesterase (Michaelis-Menten kinetics); format: in vitro ADME; conditions: porcine carboxylesterase 80 I.U., PBS pH 7.4, 37°C
Experimental: The method used was slightly modified from Nics et al.. Incubations of different amounts (10, 30, 50, 70, 100, 200 μg/ml) of FE@SNAP were accomplished with a constant quantity of 80 International Units (I.U.) of porcine carboxylesterase under physiological conditions (PBS, pH 7.4, 37°C). The use of selected concentrations of FE@SNAP was based on an optimal choice to create Michaelis-Menten kinetics (MMK). 35 μl of the incubation-mixture were stopped after defined points in time (0, 60, 120, 180, and 240 min) by adding the same amount of ice-cold acetonitrile/methanol (10:1) and then vortexed. After centrifugation of the reaction mixtures (23.000 × g, 5 min), 20 μL of the obtained supernatant were analyzed by analytical HPLC (for conditions see Plasma Stability). The MMK of FE@SNAP was calculated by using GraphPad Prism software Version 5.0 (La Jolla, CA, USA).

[5] = HPLC-based logD analysis; format: physicochemical; conditions: ODP-50 column, phosphate buffer pH 7.4, n=3
Experimental: LogD values were determined using an HPLC-based assay according to Donovan and Pescatore. A cocktail of two internal standards (toluene and triphenylene) with known logD and k′ values and FE@SNAP in methanol were injected into a short polymeric ODP-50 column. A linear gradient from 10% methanol/90% phosphate buffer (pH 7.4) to 100% methanol within 9.4 min at a flow rate of 1.5 mL/min was applied. Detection was performed at 260 nm and 285 nm.

[6] = biological target: human MCHR1 (hMCHR1); set-up: method as in PMID 12118247; conditions: Cos-7 cells expressing the human MCHR1; cited from earlier work
[7] = set-up: method as in PMID 23829932; conditions: evaluated previously; cited from earlier work
[8] = biological target: T2, hMCHR1 (Homo sapiens, UniProt Q99705); test: saturation binding of [^18F]FE@SNAP on CHO-K1 cell membranes expressing hMCHR1; conditions: CHO-K1 membranes expressing hMCHR1, room temperature, 120 min, n=2
T2 construct: purchased PerkinElmer; host or cells: CHO-K1 cell membranes (recombinant expression)
T2 sequence (Q99705 whole entry): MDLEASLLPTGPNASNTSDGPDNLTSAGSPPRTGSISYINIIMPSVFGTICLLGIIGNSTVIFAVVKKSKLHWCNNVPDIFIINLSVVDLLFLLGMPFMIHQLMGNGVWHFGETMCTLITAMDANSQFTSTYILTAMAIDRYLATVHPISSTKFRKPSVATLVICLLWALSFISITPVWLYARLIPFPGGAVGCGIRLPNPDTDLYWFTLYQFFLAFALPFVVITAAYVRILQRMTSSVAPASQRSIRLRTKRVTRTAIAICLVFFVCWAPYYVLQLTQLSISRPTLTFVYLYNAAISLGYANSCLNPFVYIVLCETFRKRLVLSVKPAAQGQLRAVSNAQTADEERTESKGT
Experimental: The method used was conducted according to Mashiko et al. with minor modifications. CHO-K1 cell membranes expressing hMCHR1 (10 μg/mL) were dissolved in 500 μL and a 50 mM Tris buffer (pH 7.4) (containing 10 mM MgCl2, 2 mM EDTA, 0.1% bacitracin and 0.2% BSA). For the evaluation of the equilibrium dissociation constant (Kd) of [^18F]FE@SNAP, several concentrations (0–500 nM) of [^18F]FE@SNAP were added. The membranes were incubated in vials at room temperature for 120 min. Bound and free fractions of the radioligand were separated by centrifugation at 40.000 × g for 20 min. The supernatants were removed into new vials. The pellets were washed with 800 μL of the ice cold Tris buffer, which was added to the supernatant, and the pellets were dissolved in 1300 μL of the Tris buffer. The radioactivity in the vials was measured by a Gamma Counter. The Kd values were calculated by using GraphPad Prism software Version 5.0 (La Jolla, CA, USA).

[9] = plasma stability in human plasma; format: in vitro ADME; conditions: 37°C, pH 7.4, n=6
Experimental: as §1

[10] = system: CYP450, human liver microsomes; test: stability against liver microsomes (CYP450), human; format: in vitro ADME; conditions: after 60 min, n=4
Experimental: (§2) The method used was described by Nics et al.. Briefly, liver microsomes (pooled from human or rat origin) were pre-incubated under physiological conditions (PBS, pH 7.4, 37°C) with a NADPH-generating system (solution-A: NADP+, glucose-6-phosphate and magnesium-chloride in H2O and solution-B: glucose-6-phosphate dehydrogenase in sodium citrate) for 5 min. 6 μL of [^18F]FE@SNAP, which correspond to 2% ethanol (v/v) in the total volume, were added. Enzymatic reactions were stopped after defined points in time (0, 2, 5, 10, 20, 40, and 60 min) by adding the same amount of ice-cold acetonitrile/methanol (10:1). The mixtures were vortexed, followed by a centrifugation step (23.000 × g, 5 min). Aliquots of the obtained supernatant were analyzed by an analytical HPLC (for conditions see Plasma Stability).

[11] = system: CYP450, rat liver microsomes; test: stability against liver microsomes (CYP450), rat; format: in vitro ADME; conditions: after 60 min, n=4
Experimental: as §2

[12] = set-up: method as in PMID 10908045; conditions: cited from earlier work

Ki [1]: > 1000 nM | degradation in rat plasma (in words) [2]: complete | plasma free fraction (f1) [3]: 12.6 ± 0.2% | limiting velocity (Vmax) [4]: 0.874 µM/min | Km ([4]; read-out: Michaelis-Menten constant (Km)): 347 µM | logD [5]: 3.83 ± 0.1
Compound: COCC1=C(C(=O)OCCF)C(c2ccc(F)c(F)c2)N(C(=O)NCCCN2CCC(c3cccc(NC(C)=O)c3)CC2)C(=O)N1 (stereo not drawn) [FE@SNAP]

Compound: COCC1=C(C(=O)OC)[C@H](c2ccc(F)c(F)c2)N(C(=O)NCCCN2CCC(c3cccc(NC(C)=O)c3)CC2)C(=O)N1 [SNAP-7941, (+)-methyl (4S)-3-{[(3-{4-[3-(acetylamino)phenyl]-1-piperidinyl}propyl)amino]carbonyl}-4-(3,4-difluorophenyl)-6-(methoxymethyl)-2-oxo-1,2,3,4-tetrahydro-5-pyrimidinecarboxylate hydrochloride]
Kd [6]: 0.18 nM

Compound: COCC1=C(C(=O)O[11CH3])[C@H](c2ccc(F)c(F)c2)N(C(=O)NCCCN2CCC(c3cccc(NC(C)=O)c3)CC2)C(=O)N1 [[^11C]SNAP-7941]
degradation in rat plasma (in words) [7]: rapid enzymatic degradation

Kd [8]: 2.9 nM | degradation in human plasma ([9]; after 0 min): 0.48 ± 0.5% | degradation in human plasma ([9]; after 120 min): 3.87 ± 3.9% | degradation in rat plasma (in words) [2]: completely metabolized | degradation in rat plasma ([2]; initially (0 min), 37°C, pH 7.4, n=11): 32.44 ± 33.5% | fraction unbound ([3]; heparinized plasma, read-out: plasma free fraction (f1)): 0.126 ± 0.002 | enzymatic degradation by CYP450 [10]: 5.39 ± 1.6% | enzymatic degradation by CYP450 [11]: 2.59 ± 1.8% | chromatographic logD ([5]; polymeric ODP-50 HPLC column): 3.83
Compound: COCC1=C(C(=O)OCC[18F])[C@H](c2ccc(F)c(F)c2)N(C(=O)NCCCN2CCC(c3cccc(NC(C)=O)c3)CC2)C(=O)N1 [[^18F]FE@SNAP]

Compound: COc1ccccc1N1CCN(CCN(c2ccccn2)[11C](=O)C2CCCCC2)CC1 [[carbonyl-^11C]WAY-100635]
plasma free fraction [12]: 5.8 ± 0.2%
